Eight substances from patent US20230190762A1, “STABLE VARENICLINE DOSAGE FORMS” (Handa Pharma, Inc., priority 2021, published 2023) can be followed below.

A value given as a limit tells only on which side of the number the result lay.

A short description of series [1]: Particle size, Mastersizer 3000 laser particle size analyzer, wet method. The class given is physicochemical. As for the experimental part:
The particle size of five representative lots of varenicline tartrate was determined and the results are as follows:
Mastersizer 3000 Laser Particle Size Analyzer and Electronic Analytical Balance
3.3.1 Preparation N-hexane solution of 0.1% span 85.
3.3.2 Weigh about 0.04 g sample and add into 5 mL dispersant, and ultrasonic for 10 min.
3.4.1 Cleaning instrument.
3.4.2 The above parameters are set,
3.4.3 Reconfirm the inspection parameters.
3.4.4 Background checks are required.
3.4.5 Samples tested and each for 3 times.

The nature of series [2]: Nitrosamine test for API and finish product, UPLC-MS/MS. The class given is physicochemical. The following applies: for API nitrosamine level (Nitro-P08) (based on varenicline base): initial level of API lot. As for the experimental part: 4. Nitrosamine Test Method for API and Finish Product
UPLC-MS/MS, Thermo scientific; Orbitrap Exploris 120
4.2. Solution Preparations
4.2.2 Mobile phase A: Formic acid: Purified Water (0.1:100), transferred 500 mL purified water to 500 mL analysis bottle, then added 500 μL formic acid and well mixed. Ultrasonic Degassing for 5 min.
4.2.3 Mobile phase B: Formic acid: Methanol (0.1:100), transferred 500 mL methanol to 500 mL analysis bottle, then added 500 μL formic acid and well mixed. Ultrasonic degassing for 5 min.
4.2.4 Reference stock solution I: Weight about 2.0 mg of 8-nitroso-7,8,9,10-tetrahydro-6H-6,10-methanoazepino[4,5-g]quinoxaline (Nitro-P08) into a 100 mL volumetric flask. Dissolve with methanol and dilute to volume and well mixed (about 20 μg/mL of Nitro-P08).
4.2.5 Reference stock solution II: Accurately pipet 5.0 mL of reference stock solution I into a 200-mL volumetric flask, dilute with methanol to volume and well mixed (about 500 ng/mL of Nitro-P08).
4.2.6 Reference stock solution III: Accurately pipet 5.0 mL of reference stock solution II into a 50-mL volumetric flask, dilute with methanol to volume and well mixed (about 50 ng/mL of Nitro-P08).
4.2.7 Reference solution: Accurately pipet 1.0 mL of reference stock solution III into a 50-mL volumetric flask, dilute with methanol to volume and well mixed.
Weighted about 25 mg of sample into a 50 mL volumetric flask. Diluted to volume with Diluent and well mixed. Prepared 2 duplication in parallel.
4.2.8.2 for Finish Product
Grind 10 tablets for 1 mg strength or 20 tablets for 0.5 mg strength, accurately weigh and transfer about 0.61 g of powder (equivalent to about 5 mg of Varenicline Tartrate API) into a 50 mL stoppered test tube, add 10 mL of methanol, vortex for 1 min and treat with ultrasound for 20 min. Place it still for 10 min, take an appropriate amount of solution for centrifugation (10000 rpm, 10 min), and then take the supernatant as the test solution. Prepare in duplicates. (Note: Grind the tablets and weigh right before the test sample solution preparation.)

[3] abbreviates: particle size of varenicline tartrate lot, listed as 202012001.
Where [4] appears, read: particle size of varenicline tartrate lot.
Where [5] appears, read: particle size of varenicline tartrate lot, listed as 202012002.
[6] abbreviates: API lot of compatibility study, 80 mesh.
The mark [7] stands for this setting: particle size of varenicline tartrate lot, listed as 202010004.

In series [1] (setting [3]), Varenicline Tartrate [Lot 202012001] came in with a D10 of 1.547 μm, a D50 of 4.088 μm and a D90 of 8.554 μm.
As to Varenicline Tartrate [Lot 202101002], in series [2] (initial), the “Nitroso impurity [drawing 4] in bulk drug substance (API)” value was determined as 1.6 ppm and the “Nitroso impurity [drawing 5] in bulk drug substance (API)” value is reported as “<LOQ (0.0289 ppm)”.
On to Varenicline Tartrate [Lot 201811001], for which, in series [2] (<30° C., >[…]), the “Nitroso impurity [drawing 4] in bulk drug substance (API)” value was 18.3 ppm and the “Nitroso impurity [drawing 5] in bulk drug substance (API)” value is “<LOQ (0.0289 ppm)”. Besides, in series [1] (setting [4]), the D10 turned out to be 0.878 μm, the D50 was 2.630 μm and the D90 came to 32.700 μm.
Consider Varenicline Tartrate [Lot 6A], for which, in series [2], the “API nitrosamine level (Nitro-P08) (based on varenicline base)” value is given as 7.35 ppm.
As to Varenicline Tartrate [Lot 202012002], the “API nitrosamine level (Nitro-P08) (based on varenicline base)” value in series [2] (listed as 6B) came to 1.8 ppm. In addition, in series [1] (setting [5]), the D10 turned out to be 2.269 μm, the D50 worked out at 5.708 μm and the D90 worked out at 11.288 μm.
Take Varenicline Tartrate [Lot 201702001]: in series [1] (setting [6]), the D10 is 1.1 µm, the D50 came out at 3.3 µm and the D90 is 11 µm.
In the case of Varenicline Tartrate [Lot 202010004], in series [1] (setting [7]), the D10 is on record as 2.339 μm, the D50 worked out at 6.354 μm and the D90 is 11.802 μm.
On to Varenicline Tartrate [Lot 201810001], for which, in series [2] (<30° C., >[…]), the “Nitroso impurity [drawing 4] in bulk drug substance (API)” value was 7.1 ppm and the “Nitroso impurity [drawing 5] in bulk drug substance (API)” value is “<LOQ (0.0289 ppm)”. Moreover, in series [1] (setting [4]), the D10 was found to be 0.858 μm, the D50 is on record as 2.600 μm and the D90 is given as 9.660 μm.
